Laboratory results as given in US20210275511A1, “METHYLPHENIDATE COMPOSITIONS FOR TREATMENT OF ATTENTION DEFICIT HYPERACTIVITY DISORDER” (Ironshore Pharmaceuticals & Development, Inc., priority 2019, published 2021).

Tested on: SKAMP scores in children aged 6-12 with attention deficit hyperactivity disorder (ADHD)
Assay: Population PK/PD model of SKAMP scores (Study HLD200-107, laboratory classroom)
Type: in vivo, human
Conditions: FIG. 37
Source text: PD data. The clinical data used in this analysis were the SKAMP scores collected in a Phase 3 (HLD200-107 study), multicenter, open-label treatment-optimized, double-blind, randomized, placebo-controlled, forced-withdrawal, parallel group study to evaluate the safety and efficacy of evening dosed HLD200, a novel delayed and extended release formulation (DELEXIS) of methylphenidate hydrochloride, in children aged 6-12 with attention deficit hyperactivity disorder (ADHD) in a laboratory classroom setting.
PK/PD model development. In this study, no MPH samples were collected. Therefore the individual exposure, used in the PK/PD analysis were estimated based on the outcomes of population PK model and on the individual demographic (weight and gender) covariate values.
The model included a parametric description of the trajectories of SKAMP scores for placebo and HLD200 treatments. […]
Examples 10 to 15 relate to PK/PD analysis results. […] In the first step, the individual MPH concentrations were derived using the population PK model previously developed jointly with the individual demographic data and the individual HLD200 dosing history, then the placebo data were modelled, and finally the SKAMP scores were analyzed by fixing the placebo and the PK exposure values previously estimated. […]

## COC(=O)C(c1ccccc1)C1CCCCN1 (stereo not shown) [MPH, methylphenidate]
  Drug concentration required to induce a change from placebo of ~40%: ~15 ng/mL
